In patent US11214772B2, “Production method for retinal tissue” (SUMITOMO DAINIPPON PHARMA CO., LTD., priority 2014, dated 2022):

Test system: human iPS cells (1231A3 strain)
Assay: Bright field observation of cell aggregates in suspension culture (aggregate shape, neuroepithelium / neural tissue formation)
Type: cell-based
Experimental: The above subconfluent human iPS cells were treated with a cell dispersion solution by using TrypLE Select (Life Technologies), and further dispersed into single cells by a pipetting operation. Thereafter, the above human iPS cells dispersed into single cells were suspended in 100 μl of a serum-free medium in a non-cell-adhesive 96 well culture plate (PrimeSurface 96V-bottom plate, SUMITOMO BAKELITE) at 1.2×10^4 cells per well, and subjected to suspension culturing at 37° C., 5% CO2. As a serum-free medium (gfCDM+KSR) therefor, a 1:1 mixture of F-12 medium and IMDM medium supplemented with 10% KSR, 450 μM 1-monothioglycerol, 1× Chemically defined lipid concentrate was used. At the start of the suspension culturing (on day 0 after the start of suspension culturing, step 2 start), Y27632 (final concentration 20 μM) was added to the above serum-free medium. By day 2 after the start of suspension culturing, cell aggregates were formed (step 2 completed, and step 3 start). On day 3 after the start of suspension culturing, a serum-free medium (50 μl) free of Y27632 was added.
On day 6 after the start of suspension culturing, a half amount of the medium was changed with a medium free of Y27632 and containing or not containing human recombinant BMP4 (manufactured by R&D) to adjust the final concentration of exogenous human recombinant BMP4 to 1.5 nM (55 ng/ml, FIG. 1B) or to give a medium free of exogenous human recombinant BMP4 (FIG. 1A). As the half-medium exchange operation, a half volume of the medium in the culture vessel, namely 75 μl, was discarded, the above fresh serum-free medium (75 μl) was added to adjust the total medium amount to 150 μl. Thereafter, a half amount of the medium was changed with the above serum-free medium free of Y27632 and human recombinant BMP4 once per 2-4 days. […]
The thus-prepared subconfluent human iPS cells were treated with a cell dispersion solution by using TrypLE Select (Life Technologies), and further dispersed into single cells by a pipetting operation. Thereafter, the above human iPS cells dispersed into single cells were suspended in 100 μl of a serum-free medium in a non-cell-adhesive 96 well culture plate (PrimeSurface 96V-bottom plate, SUMITOMO BAKELITE) at 1.2×10^4 cells per well, and subjected to suspension culturing at 37° C., 5% CO2. As a serum-free medium (gfCDM+KSR) therefor, a 1:1 mixture of F-12 medium and IMDM medium supplemented with 10% KSR, 450 μM 1-monothioglycerol, 1× Chemically defined lipid concentrate was used. […] By day 2 after the start of suspension culturing, cell aggregates were formed (step 2 completed, step 3 start). On day 3 after the start of suspension culturing, a serum-free medium (50 μl) free of Y27632 and SAG was added. On day 6 after the start of suspension culturing, a half amount of the medium was changed with a medium free of Y27632 and containing or not containing human recombinant BMP4 (manufactured by R&D) to adjust the final concentration of exogenous human recombinant BMP4 to 1.5 nM (55 ng/ml, FIG. 1D) or to give a medium free of exogenous human recombinant BMP4 (FIG. 1C). As the half-medium exchange operation, a half volume of the medium in the culture vessel, namely 75 μl, was discarded, the above fresh serum-free medium (75 μl) was added to adjust the total medium amount to 150 μl. Thereafter, a half amount of the medium was changed with the above serum-free medium free of Y27632, SAG and human recombinant BMP4 once per 2-4 days. […]
The thus-prepared subconfluent human iPS cells were treated with the cell dispersion solution by using TrypLE Select (Life Technologies), further dispersed into single cells by pipetting operation, and the above human iPS cells dispersed into single cells were suspended in 100 μl of a serum-free medium at 1.2×10^4 cells per well of a non-cell-adhesive 96-well culture plate (PrimeSurface 96V-bottom plate, manufactured by SUMITOMO BAKELITE). Thereafter, the cells were subjected to suspension culturing at 37° C., 5% CO2. […]

[1] = Example 2 Condition 3, Essential 8, SAG 300 nM day 0, no BMP4, day 18

CNC1CCC(N(Cc2cccc(-c3ccncc3)c2)C(=O)c2sc3ccccc3c2Cl)CC1 (centres unmarked) [SAG]
aggregate shape and neuroepithelial structure (bright field) (Example 1, StemFit, SAG 300 nM day 0, BMP4 1.5 nM day 6, day 19): cell aggregates were maintained, and neuroepithelial structure was observed | aggregate shape and neuroepithelial structure (bright field) (Example 1, StemFit, SAG 300 nM day 0, no BMP4, day 19): cell aggregates were maintained, and neuroepithelial structure was observed | aggregate shape and neuroepithelial structure (bright field) [1]: cell aggregates were maintained, and neuroepithelial structure was efficiently formed | proportion of bad form aggregates (collapsed, free of neuroepithelium) [1]: 6% | proportion of good form aggregates (containing many neuroepithelia) [1]: 93% | aggregate shape and neuroepithelial structure (bright field) (Example 2 Condition 4, Essential 8, SAG 300 nM day 0, BMP4 1.5 nM day 6, day 18): cell aggregates were maintained, and neuroepithelial structure was efficiently formed | aggregate shape and neural tissue formation (microscope) (Example 4 Condition 1, StemFit, SAG 300 nM day 0, BMP4 1.5 nM day 3, day 18): cell aggregates were maintained, and a neural tissue was formed | aggregate shape and neural tissue formation (microscope) (Example 4 Condition 2, StemFit, SAG 300 nM day 0, BMP4 1.5 nM day 6, day 18): cell aggregates were maintained, and a neural tissue was formed | aggregate shape and neural tissue formation (microscope) (Example 5 Condition 1, StemFit, SAG 600 nM day 0, BMP4 1.5 nM day 3, day 18): cell aggregates were maintained, and a neural tissue was formed | aggregate shape and neural tissue formation (microscope) (Example 5 Condition 2, StemFit, SAG 600 nM day 0, BMP4 1.5 nM day 6, day 18): cell aggregates were maintained, and a neural tissue was formed | aggregate growth and neuroepithelium formation (bright field) (Example 7, StemFit, SAG 30 nM, PMA 0.2 μM or human recombinant Shh 300 ng/ml day 0, BMP4 1.5 nM day 3, day 18): cell aggregates grew and neuroepithelium was formed
